Laboratory results published in PubChem BioAssay (NCI).
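Each compound was tested at five concentrations against cells in 96-well plates for 48 hours. TGI: concentration producing complete growth inhibition.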

Assays:
Experiment in all cases: growth of human tumour cells (NCI), 48 h
BT-549 breast = system: BT-549 breast
MDA-MB-231 breast = system: MDA-MB-231 breast
K-562 leukemia = system: K-562 leukemia
SK-MEL-28 melanoma = system: SK-MEL-28 melanoma
DU-145 prostate = system: DU-145 prostate
A549 NSCLC = system: A549 NSCLC
UO-31 renal = system: UO-31 renal
OVCAR-8 ovarian = system: OVCAR-8 ovarian
OVCAR-3 ovarian = system: OVCAR-3 ovarian
HT29 colon = system: HT29 colon
NCI-H460 lung = system: NCI-H460 lung
HCC-2998 colon = system: HCC-2998 colon
OVCAR-5 ovarian = system: OVCAR-5 ovarian
IGROV1 ovarian = system: IGROV1 ovarian
M14 melanoma = system: M14 melanoma
786-0 renal = system: 786-0 renal
ACHN renal = system: ACHN renal
UACC-257 melanoma = system: UACC-257 melanoma
MOLT-4 leukemia = system: MOLT-4 leukemia
SW-620 colon = system: SW-620 colon
MDA-N = system: MDA-N
CAKI-1 renal = system: CAKI-1 renal
MCF7 breast = system: MCF7 breast
HOP-92 NSCLC = system: HOP-92 NSCLC
EKVX NSCLC = system: EKVX NSCLC
SNB-19 CNS = system: SNB-19 CNS
MDA-MB-435 = system: MDA-MB-435
UACC-62 melanoma = system: UACC-62 melanoma
U251 CNS = system: U251 CNS
SN12C renal = system: SN12C renal
CCRF-CEM leukemia = system: CCRF-CEM leukemia
SNB-75 CNS = system: SNB-75 CNS
SF-539 CNS = system: SF-539 CNS
NCI/ADR-RES ovarian = system: NCI/ADR-RES ovarian
HCT-15 colon = system: HCT-15 colon
LOX IMVI melanoma = system: LOX IMVI melanoma
RXF 393 renal = system: RXF 393 renal
SK-MEL-5 melanoma = system: SK-MEL-5 melanoma
NCI-H226 lung = system: NCI-H226 lung
A498 renal = system: A498 renal
HOP-62 NSCLC = system: HOP-62 NSCLC
SK-MEL-2 melanoma = system: SK-MEL-2 melanoma
T-47D breast = system: T-47D breast
SR leukemia = system: SR leukemia
RPMI-8226 leukemia = system: RPMI-8226 leukemia
HCT-116 colon = system: HCT-116 colon
SF-295 CNS = system: SF-295 CNS
COLO 205 colon = system: COLO 205 colon
OVCAR-4 ovarian = system: OVCAR-4 ovarian
KM12 colon = system: KM12 colon
PC-3 prostate = system: PC-3 prostate
NCI-H23 lung = system: NCI-H23 lung
HS 578T breast = system: HS 578T breast
MALME-3M melanoma = system: MALME-3M melanoma
HL-60(TB) leukemia = system: HL-60(TB) leukemia
SK-OV-3 ovarian = system: SK-OV-3 ovarian
SF-268 CNS = system: SF-268 CNS
NCI-H522 lung = system: NCI-H522 lung
TK-10 renal = system: TK-10 renal

For `COc1cccc(-c2[nH]c3cc4c(cc3c(=O)c2C(=O)O)OCO4)c1`, the TGI (BT-549 breast) was > 100 µM, the TGI (MDA-MB-231 breast) was > 100 µM and the TGI (K-562 leukemia) was > 100 µM. The TGI (SK-MEL-28 melanoma) was > 100 µM, the TGI (DU-145 prostate) was > 100 µM and the TGI (A549 NSCLC) was > 100 µM. The TGI (UO-31 renal) was > 100 µM, the TGI (OVCAR-8 ovarian) was 65.9 µM and the TGI (OVCAR-3 ovarian) was > 100 µM. For the same compound, the TGI (HT29 colon) was > 100 µM, the TGI (NCI-H460 lung) was > 100 µM and the TGI (HCC-2998 colon) was 74.6 µM. The TGI (OVCAR-5 ovarian) was > 100 µM, the TGI (IGROV1 ovarian) was > 100 µM and the TGI (M14 melanoma) was > 100 µM. For the same compound, the TGI (786-0 renal) was > 100 µM, the TGI (ACHN renal) was > 100 µM and the TGI (UACC-257 melanoma) was > 100 µM. The TGI (MOLT-4 leukemia) was > 100 µM, the TGI (SW-620 colon) was > 100 µM and the TGI (MDA-N) was 51.5 µM. The TGI (CAKI-1 renal) was > 100 µM, the TGI (MCF7 breast) was > 100 µM and the TGI (HOP-92 NSCLC) was > 100 µM. For the same compound, the TGI (EKVX NSCLC) was > 100 µM, the TGI (SNB-19 CNS) was > 100 µM and the TGI (MDA-MB-435) was > 100 µM. The TGI (UACC-62 melanoma) was > 100 µM, the TGI (U251 CNS) was > 100 µM and the TGI (SN12C renal) was > 100 µM. The TGI (CCRF-CEM leukemia) was > 100 µM, the TGI (SNB-75 CNS) was > 100 µM and the TGI (SF-539 CNS) was 69.4 µM. For the same compound, the TGI (NCI/ADR-RES ovarian) was 47.3 µM, the TGI (HCT-15 colon) was > 100 µM and the TGI (LOX IMVI melanoma) was > 100 µM. The TGI (RXF 393 renal) was > 100 µM, the TGI (SK-MEL-5 melanoma) was > 100 µM and the TGI (NCI-H226 lung) was > 100 µM. For the same compound, the TGI (A498 renal) was 91.6 µM, the TGI (HOP-62 NSCLC) was > 100 µM and the TGI (SK-MEL-2 melanoma) was > 100 µM. The TGI (T-47D breast) was > 100 µM, the TGI (SR leukemia) was > 100 µM and the TGI (RPMI-8226 leukemia) was > 100 µM. The TGI (HCT-116 colon) was > 100 µM, the TGI (SF-295 CNS) was 79.4 µM and the TGI (COLO 205 colon) was 74.9 µM. The TGI (OVCAR-4 ovarian) was > 100 µM, the TGI (KM12 colon) was > 100 µM and the TGI (PC-3 prostate) was > 100 µM. For the same compound, the TGI (NCI-H23 lung) was > 100 µM.

`O=C(c1ccccc1)c1ccc2nc3n(c2c1)C(c1c(Cl)cccc1Cl)SC3` (stereo not given) was tested, and the TGI (BT-549 breast) was > 100 µM, the TGI (MDA-MB-231 breast) was > 100 µM and the TGI (HS 578T breast) was > 65 µM. For the same compound, the TGI (K-562 leukemia) was > 100 µM, the TGI (SK-MEL-28 melanoma) was > 100 µM and the TGI (DU-145 prostate) was > 94.5 µM. For the same compound, the TGI (A549 NSCLC) was 54.7 µM, the TGI (UO-31 renal) was > 67.6 µM and the TGI (OVCAR-8 ovarian) was > 55.5 µM. The TGI (OVCAR-3 ovarian) was > 100 µM, the TGI (HT29 colon) was 31 µM and the TGI (NCI-H460 lung) was > 51.9 µM. For the same compound, the TGI (HCC-2998 colon) was > 50.4 µM, the TGI (OVCAR-5 ovarian) was > 100 µM and the TGI (IGROV1 ovarian) was > 100 µM. The TGI (MALME-3M melanoma) was 31.3 µM, the TGI (M14 melanoma) was 16.9 µM and the TGI (786-0 renal) was > 100 µM. The TGI (ACHN renal) was > 38 µM, the TGI (UACC-257 melanoma) was > 100 µM and the TGI (MOLT-4 leukemia) was 19.7 µM. For the same compound, the TGI (SW-620 colon) was > 100 µM, the TGI (MDA-N) was 3.84 µM and the TGI (HL-60(TB) leukemia) was > 53.5 µM. The TGI (CAKI-1 renal) was > 51.7 µM, the TGI (MCF7 breast) was > 100 µM and the TGI (HOP-92 NSCLC) was > 100 µM. For the same compound, the TGI (SK-OV-3 ovarian) was > 30.7 µM, the TGI (EKVX NSCLC) was 78.6 µM and the TGI (SNB-19 CNS) was > 64.1 µM. The TGI (UACC-62 melanoma) was > 36.5 µM, the TGI (U251 CNS) was > 100 µM and the TGI (SN12C renal) was > 68.7 µM. For the same compound, the TGI (CCRF-CEM leukemia) was > 100 µM, the TGI (SNB-75 CNS) was 18.9 µM and the TGI (SF-539 CNS) was > 59.4 µM. The TGI (NCI/ADR-RES ovarian) was 35.8 µM, the TGI (HCT-15 colon) was > 100 µM and the TGI (LOX IMVI melanoma) was 31.6 µM. For the same compound, the TGI (RXF 393 renal) was > 100 µM, the TGI (SF-268 CNS) was > 100 µM and the TGI (SK-MEL-5 melanoma) was 14.6 µM. For the same compound, the TGI (NCI-H226 lung) was > 100 µM, the TGI (A498 renal) was 50.1 µM and the TGI (HOP-62 NSCLC) was > 44.4 µM. It also gave a TGI (SK-MEL-2 melanoma) of 78.5 µM, a TGI (T-47D breast) of 24.5 µM and a TGI (SR leukemia) of 8.42 µM. The TGI (RPMI-8226 leukemia) was > 74.7 µM, the TGI (NCI-H522 lung) was 5.1 µM and the TGI (HCT-116 colon) was 12.8 µM. For the same compound, the TGI (SF-295 CNS) was > 26.6 µM, the TGI (TK-10 renal) was > 100 µM and the TGI (COLO 205 colon) was > 90.2 µM. The TGI (OVCAR-4 ovarian) was > 80.3 µM, the TGI (KM12 colon) was 19.5 µM and the TGI (PC-3 prostate) was > 100 µM. The TGI (NCI-H23 lung) was 83.6 µM.
